What follows are compounds tested against T1, Histamine H3 receptor (Homo sapiens, UniProt Q9Y5N1) (assay: Ratio of dispyrin IC50 to compound IC50 for human histamine H3 receptor).
T1 sequence (Q9Y5N1 whole entry): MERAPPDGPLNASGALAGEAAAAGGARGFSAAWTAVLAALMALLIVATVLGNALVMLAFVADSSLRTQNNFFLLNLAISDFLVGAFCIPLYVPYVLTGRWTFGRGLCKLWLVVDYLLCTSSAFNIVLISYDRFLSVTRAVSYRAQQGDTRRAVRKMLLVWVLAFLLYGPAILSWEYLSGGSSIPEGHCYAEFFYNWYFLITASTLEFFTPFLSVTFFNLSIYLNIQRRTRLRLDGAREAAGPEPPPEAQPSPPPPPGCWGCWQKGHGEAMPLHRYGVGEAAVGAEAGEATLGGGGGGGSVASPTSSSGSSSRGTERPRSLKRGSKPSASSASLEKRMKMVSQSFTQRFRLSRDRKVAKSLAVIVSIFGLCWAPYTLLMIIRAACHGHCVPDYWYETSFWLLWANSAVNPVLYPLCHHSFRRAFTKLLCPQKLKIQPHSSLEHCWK

Ratio IC50 | SMILES
13 | O=C(NCCc1ccc(OCCN2CCCC2)c(Br)c1)c1cc(Br)cs1
33 | O=C(NCCc1ccc(OCCN2CCCC2)c(Br)c1)c1nccs1

Each compound was assayed against T1, Histamine H3 receptor (assay: Displacement of [3H]SMT from human histamine H3 receptor).

SMILES | IC50 | Ki
O=C(NCCc1ccc(OCCN2CCOCC2)c(Br)c1)c1ccc[nH]1 | 59200 nM | 26400 nM
Cn1cccc1C(=O)NCCc1ccc(OCCN2CCCC2)c(Br)c1 | 310 nM | 
CN(C)CCOc1ccc(CCNC(=O)c2cc(Br)cs2)cc1Br | 1520 nM | 
CN(C)CCCOc1ccc(CCNC(=O)c2ccc(Br)o2)cc1Br |  | 2290 nM
CN(C)CCOc1ccc(CCNC(=O)c2cccn2C)cc1Br |  | 2130 nM
CN(C)CCCOc1ccc(CCNC(=O)c2cccn2C)cc1Br | 3990 nM | 1760 nM
O=C(NCCc1ccc(OCCN2CCOCC2)c(Br)c1)c1cc(Br)c[nH]1 | 29100 nM | 12900 nM
Cn1cccc1C(=O)NCCc1ccc(OCCN2CCOCC2)c(Br)c1 | 39600 nM | 17600 nM
O=C(NCCc1ccc(OCCN2CCOCC2)c(Br)c1)c1ccc(Br)o1 | 73200 nM | 32500 nM
CN1CCCC(COc2ccc(CCNC(=O)c3ccc(Br)o3)cc2Br)C1 (centres undefined) | 4560 nM | 
O=C(NCCc1ccc(OCCN2CCOCC2)c(Br)c1)c1cc(Br)cs1 | 30400 nM | 13500 nM

Next, values leading:

IC50 | Ki | SMILES
3730 nM | 1250 nM | CN1CCCC(COc2ccc(CCNC(=O)c3cc(Br)cs3)cc2Br)C1 (centres undefined)
 | 1520 nM | CN1CCCC(COc2ccc(CCNC(=O)c3ccc[nH]3)cc2Br)C1 (centres undefined)
2520 nM | 1150 nM | O=C(NCCc1ccc(OCCN2CCC(F)C2)c(Br)c1)c1cc(Br)cs1 (stereo in doubt; 18d)
80 nM | 30 nM | O=C(NCCc1ccc(OCCN2CCCC2)c(Br)c1)c1cnco1
 | 1360 nM | CN(C)CCCOc1ccc(CCNC(=O)c2ccc[nH]2)cc1Br
260 nM | 120 nM | O=C(NCCc1ccc(OCCN2CCCC2)c(Br)c1)c1cncs1
2110 nM | 1100 nM | O=C(NCCc1ccc(OCCN2CCC(F)C2)c(Br)c1)c1cc(Br)cs1 (single isomer, unassigned; enantiomer 1)
750 nM | 330 nM | CC1CCCN1CCOc1ccc(CCNC(=O)c2cc(Br)cs2)cc1Br (single isomer, unassigned; enantiomer 2)
710 nM | 310 nM | CC1CCCN1CCOc1ccc(CCNC(=O)c2cc(Br)cs2)cc1Br (single isomer, unassigned; enantiomer 1)
3620 nM | 1650 nM | CN1CCCC(COc2ccc(CCNC(=O)c3cccn3C)cc2Br)C1 (centres undefined)
70 nM | 30 nM | O=C(NCCc1ccc(OCCN2CCCC2)c(Br)c1)c1nccs1
2940 nM | 1330 nM | CN1CCCC(COc2ccc(CCNC(=O)c3cc(Br)c[nH]3)cc2Br)C1 (centres undefined)
 | 1550 nM | CN(C)CCOc1ccc(CCNC(=O)c2ccc[nH]2)cc1Br

What follows are compounds tested against T1, Histamine H3 receptor (assay: Ratio of dispyrin Ki to compound Ki for human histamine H3 receptor).

Ratio Ki | SMILES
13 | O=C(NCCc1ccc(OCCN2CCCC2)c(Br)c1)c1cc(Br)cs1
33 | O=C(NCCc1ccc(OCCN2CCCC2)c(Br)c1)c1nccs1
